Columns and labels:
Format in all cases: cell-based
[1] = system: CFPAC-1 human pancreatic cancer cell line; test: Cytotoxicity of third-generation taxoids, CFPAC-1; settings: CFPAC-1 cells
LCC6-WT = test: Cytotoxicity of third-generation taxoids, LCC6-WT; settings: LCC6-WT cells
[2] = system: PANC-1 human pancreatic cancer cell line; test: Cytotoxicity of third-generation taxoids, PANC-1; settings: PANC-1 cells
[3] = system: MCF7 human breast cancer cell line; test: Cytotoxicity of third-generation taxoids, MCF7; settings: MCF7 cells
[4] = system: ID8 murine ovarian cancer cell line; test: Cytotoxicity of third-generation taxoids, ID8; settings: ID8 cells
[5] = system: LCC6-MDR drug resistant (Pgp+) human breast cancer cell line; test: Cytotoxicity of third-generation taxoids, LCC6-MDR; settings: LCC6-MDR cells
[6] = system: NCI/ADR drug resistant (Pgp+) human ovarian cancer cell line; test: Cytotoxicity of third-generation taxoids, NCI/ADR; settings: NCI/ADR-RES, NCI/ADR cells

Row | SMILES | IC50 [1] [pM] | IC50 (LCC6-WT) [pM] | IC50 [2] [pM] | IC50 [3] [pM] | also measured
1 | C=C(C)C[C@H](NC(=O)OC(C)(C)C)[C@@H](O)C(=O)O[C@H]1C[C@@]2(O)[C@@H](OC(=O)c3cccc(OC(F)F)c3)[C@@H]3[C@]4(OC(C)=O)CO[C@@H]4C[C@H](O)[C@@]3(C)C(=O)[C@H](OC(=O)CC)C(=C1C)C2(C)C [SB-T-121306, 2-Debenzoyl-2-(3-difluromethoxybenzoyl)-3′-dephenyl-10-propanoyl-3′-(2-methyl-2-propenyl)docetaxel] | 170 | 810 | 490 | 540 | 
2 | C=C(C)CC(NC(=O)OC(C)(C)C)C(O)C(=O)OC1CC2(O)C(OC(=O)c3cccc(OC(F)(F)F)c3)C3C4(OC(C)=O)COC4CC(O)C3(C)C(=O)C(OC(=O)N(C)C)C(=C1C)C2(C)C (stereo not shown) [SB-T-121605, 2-Debenzoyl-2-(3-trifluromethoxybenzoyl)-3′-dephenyl-10-(N,N-dimethylcarbamoyl)-3′-(2-methyl-2-propenyl)docetaxel] | 560 |  | 540 |  | IC50 [4]: 250 pM
3 | C=C(C)CC(NC(=O)OC(C)(C)C)C(O)C(=O)OC1CC2(O)C(OC(=O)c3cccc(OC(F)(F)F)c3)C3C4(OC(C)=O)COC4CC(O)C3(C)C(=O)C(OC(=O)OC)C(=C1C)C2(C)C (stereo not shown) [SB-T-121705, 2-Debenzoyl-2-(3-trifluromethoxybenzoyl)-3′-dephenyl-10-(methoxycarbonyl)-3′-(2-methyl-2-propenyl)docetaxel] | 800 | 590 | 1170 | 980 | 
4 | C=C(C)CC(NC(=O)OC(C)(C)C)C(O)C(=O)OC1CC2(O)C(OC(=O)c3cccc(OC(F)F)c3)C3C4(OC(C)=O)COC4CC(O)C3(C)C(=O)C(OC(=O)C3CC3)C(=C1C)C2(C)C (stereo not shown) [SB-T-121406, 2-Debenzoyl-2-(3-difluromethoxybenzoyl)-3′-dephenyl-10-cyclopropanecarbonyl-3′-(2-methyl-2-propenyl)docetaxel] | 310 | 330 | 750 | 290 | 
5 | C=C(C)CC(NC(=O)OC(C)(C)C)C(O)C(=O)OC1CC2(O)C(OC(=O)c3cccc(OC(F)F)c3)C3C4(OC(C)=O)COC4CC(O)C3(C)C(=O)C(OC(C)=O)C(=C1C)C2(C)C (stereo not shown) [SB-T-121206, 2-Debenzoyl-2-(3-difluromethoxybenzoyl)-3′-dephenyl-10-acetyl-3′-(2-methyl-2-propenyl)docetaxel] | 230 | 280 | 490 | 310 | IC50 [4]: 350 pM
6 | C=C(C)CC(NC(=O)OC(C)(C)C)C(O)C(=O)OC1CC2(O)C(OC(=O)c3cccc(OC(F)(F)F)c3)C3C4(OC(C)=O)COC4CC(OC)C3(C)C(=O)C(OC)C(=C1C)C2(C)C (stereo not shown) [SB-T-1230105, 2-Debenzoyl-2-(3-trifluromethoxybenzoyl)-7,10-dimethyl-3′-dephenyl-3′-(2-methyl-2-propenyl)-docetaxel] |  | 550 | 980 |  | IC50 [5]: 6980 pM
7 | CC(=O)O[C@@]12CO[C@@H]1C[C@H](O)[C@@]1(C)C(=O)[C@H](OC(=O)C3CC3)C3=C(C)[C@@H](OC(=O)[C@H](O)[C@H](CC(C)C)NC(=O)OC(C)(C)C)C[C@@](O)([C@@H](OC(=O)c4cccc(OC(F)(F)F)c4)[C@H]21)C3(C)C [SB-T-111405, 2-Debenzoyl-2-(3-trifluromethoxybenzoyl)-3′-dephenyl-10-(cyclopropanecarbonyl)-3′-(2-methylpropyl)docetaxel] |  |  |  |  | IC50 ([1]; Homo sapiens): 2300 pM; IC50 ([2]; Homo sapiens): 560 pM; IC50 ([5]; Homo sapiens, LCC6MDR): 980 pM; IC50 ([4]; Mus musculus): 280 pM
8 | C=C(C)CC(NC(=O)OC(C)(C)C)C(O)C(=O)OC1CC2(O)C(OC(=O)c3cccc(OC(F)(F)F)c3)C3C4(OC(C)=O)COC4CC(O)C3(C)C(=O)C(OC(C)=O)C(=C1C)C2(C)C (stereo not shown) [SB-T-121205, 2-Debenzoyl-2-(3-trifluromethoxybenzoyl)-3′-dephenyl-10-acetyl-3′-(2-methyl-2-propenyl)docetaxel] | 400 | 450 | 760 | 230 | IC50 [4]: 230 pM
9 | C=C(C)CC(NC(=O)OC(C)(C)C)C(O)C(=O)OC1CC2(O)C(OC(=O)c3cccc(OC(F)(F)F)c3)C3C4(OC(C)=O)COC4CC(O)C3(C)C(=O)C(OC(=O)CC)C(=C1C)C2(C)C (stereo not shown) [SB-T-121305, 2-Debenzoyl-2-(3-trifluromethoxybenzoyl)-3′-dephenyl-10-propanoyl-3′-(2-methyl-2-propenyl)-docetaxel] | 1750 | 1540 | 1120 | 1740 | 
10 | CC(=O)O[C@@]12CO[C@@H]1C[C@H](O)[C@@]1(C)C(=O)[C@H](OC(=O)C3CC3)C3=C(C)[C@@H](OC(=O)[C@H](O)[C@H](C=C(C)C)NC(=O)OC(C)(C)C)C[C@@](O)([C@@H](OC(=O)c4cccc(OC(F)(F)F)c4)[C@H]21)C3(C)C [SB-T-121405] |  | 1010 |  |  | IC50 ([1]; Homo sapiens): 360 pM; IC50 ([2]; Homo sapiens): 320 pM; IC50 ([3]; Homo sapiens): 980 pM; IC50 ([4]; Mus musculus): 330 pM
11 | C=C(C)CC(NC(=O)OC(C)(C)C)C(O)C(=O)OC1CC2(O)C(OC(=O)c3cccc(OC(F)F)c3)C3C4(OC(C)=O)COC4CC(OC)C3(C)C(=O)C(OC)C(=C1C)C2(C)C (stereo not shown) [SB-T-1230106, 2-Debenzoyl-2-(3-difluromethoxybenzoyl)-7,10-dimethyl-3′-dephenyl-3′-(2-methyl-2-propenyl)-docetaxel] |  | 720 |  |  | IC50 [5]: 4700 pM
12 | C=C(C)CC(NC(=O)OC(C)(C)C)C(O)C(=O)OC1CC2(O)C(OC(=O)c3cccc(OC(F)(F)F)c3)C3C4(OC(C)=O)COC4CC(O)C3(C)C(=O)C(OC)C(=C1C)C2(C)C (stereo not shown) [SB-T-123005, 2-Debenzoyl-2-(3-trifluromethoxybenzoyl)-10-methyl-3′-dephenyl-3′-(2-methyl-2-propenyl)-docetaxel] | 7300 |  | 870 | 2460 | IC50 [4]: 1430 pM
13 | C=C(C)CC(NC(=O)OC(C)(C)C)C(O)C(=O)OC1CC2(O)C(OC(=O)c3cccc(OC(F)F)c3)C3C4(OC(C)=O)COC4CC(O)C3(C)C(=O)C(OC(=O)OC)C(=C1C)C2(C)C (stereo not shown) [SB-T-121706] | 150 | 460 | 1060 | 120 | 
14 | CC(=O)O[C@H]1C(=O)[C@@]2(C)[C@H]([C@H](OC(=O)c3ccccc3)[C@]3(O)C[C@H](OC(=O)[C@H](O)[C@@H](NC(=O)c4ccccc4)c4ccccc4)C(C)=C1C3(C)C)[C@]1(OC(C)=O)CO[C@@H]1C[C@@H]2O [paclitaxel, reference compound] |  | 3100 |  |  | IC50 ([1]; Homo sapiens): 68000 pM; IC50 ([2]; Homo sapiens): 3780 pM; IC50 ([3]; Homo sapiens): 3130 pM; IC50 [6]: 361000 pM; IC50 ([5]; Homo sapiens, LCC6MDR): 346000 pM; IC50 ([4]; Mus musculus): 2020 pM
